According to PubChem BioAssay AID2060605 (Molecular Pharmacology Branch, DTP, NCI, 2025):

Tested on: 947758-054-R-J2-PDC spheroid growth, percent test/control
Assay: Anticancer human tumor 947758-054-R-J2-PDC patient-derived colon adenocarcinoma cell line growth inhibition [CLK]
Details: spheroids with HUVEC and MSC; for IC50: curve of first compound; for viability, T/C: stronger effect = lower value
Outline: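 Multi-cell-type spheroids combined patient-derived tumor cells with HUVEC endothelial cells and human mesenchymal stem cells. Paired agents were dosed in half-log steps down from about clinical Cmax, or from 10 microM where Cmax was unknown.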
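Also: spheroids exposed to compounds for one week before readout.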
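For viability, T/C in this document: 100% = DMSO vehicle control wells.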

Compound: COc1ccc([C@@H](O)c2cc(-c3ncnc4cc(N5CCOCC5)ccc34)c(F)cc2Cl)nn1 + CNC(=O)c1ccc(Nc2nc(OC3CCCC3)c3c(-c4ccc5nc(C)oc5c4)c[nH]c3n2)c(OC)c1
- IC50 (second compound 0.0316 µM): 1900 nM
- IC50 (second compound 0.1 µM): 899 nM
- IC50 (second compound 0.316 µM): 874 nM
- IC50 (second compound 1 µM): 116 nM
- IC50 (second compound 3.16 µM): < 31.6 nM
- IC50 (second compound 10 µM): < 31.6 nM
- viability, T/C (second compound 0.0316 µM, first compound 0.0316 µM): 82.4%
- viability, T/C (second compound 0.0316 µM, first compound 0.1 µM): 63.7%
- viability, T/C (second compound 0.0316 µM, first compound 0.316 µM): 74.7%
- viability, T/C (second compound 0.0316 µM, first compound 1 µM): 49.5%
- viability, T/C (second compound 0.0316 µM, first compound 3.16 µM): 48.6%
- viability, T/C (second compound 0.0316 µM, first compound 10 µM): 32.8%
- viability, T/C (second compound 0.1 µM, first compound 0.0316 µM): 91.8%
- viability, T/C (second compound 0.1 µM, first compound 0.1 µM): 81.3%
- viability, T/C (second compound 0.1 µM, first compound 0.316 µM): 62.9%
- viability, T/C (second compound 0.1 µM, first compound 1 µM): 50.4%
- viability, T/C (second compound 0.1 µM, first compound 3.16 µM): 33.8%
- viability, T/C (second compound 0.1 µM, first compound 10 µM): 25.9%
- viability, T/C (second compound 0.316 µM, first compound 0.0316 µM): 80.1%
- viability, T/C (second compound 0.316 µM, first compound 0.1 µM): 66.8%
- viability, T/C (second compound 0.316 µM, first compound 0.316 µM): 58.2%
- viability, T/C (second compound 0.316 µM, first compound 1 µM): 53.4%
- viability, T/C (second compound 0.316 µM, first compound 3.16 µM): 34.6%
- viability, T/C (second compound 0.316 µM, first compound 10 µM): 17.7%
- viability, T/C (second compound 1 µM, first compound 0.0316 µM): 59%
- viability, T/C (second compound 1 µM, first compound 0.1 µM): 51.9%
- viability, T/C (second compound 1 µM, first compound 0.316 µM): 40%
- viability, T/C (second compound 1 µM, first compound 1 µM): 31.6%
- viability, T/C (second compound 1 µM, first compound 3.16 µM): 24.2%
- viability, T/C (second compound 1 µM, first compound 10 µM): 6.15%
- viability, T/C (second compound 3.16 µM, first compound 0.0316 µM): 38%
- viability, T/C (second compound 3.16 µM, first compound 0.1 µM): 32.4%
- viability, T/C (second compound 3.16 µM, first compound 0.316 µM): 37.6%
- viability, T/C (second compound 3.16 µM, first compound 1 µM): 24.1%
- viability, T/C (second compound 3.16 µM, first compound 3.16 µM): 14.1%
- viability, T/C (second compound 3.16 µM, first compound 10 µM): 7.87%
- viability, T/C (second compound 10 µM, first compound 0.0316 µM): 30.4%
- viability, T/C (second compound 10 µM, first compound 0.1 µM): 31.9%
- viability, T/C (second compound 10 µM, first compound 0.316 µM): 31%
- viability, T/C (second compound 10 µM, first compound 1 µM): 21.5%
- viability, T/C (second compound 10 µM, first compound 3.16 µM): 8.56%
- viability, T/C (second compound 10 µM, first compound 10 µM): 5.76%
